Source: patent publication US20260344661A1, “USE OF AN ALKYLETHER SULFATE FOR IMPROVING THE EFFICACY OF HERBICIDES” (BASF SE, priority 2022, published 2026)

Key:
HORVW (winter barley) = assay: Greenhouse post-emergence weed control, damage vs untreated (HORVW); format: in vivo, Hordeum vulgare; conditions: 20 DAT, adjuvant g ai/ha: none (CE1-A)
ECHCG (barnyardgrass) = assay: Greenhouse post-emergence weed control, damage vs untreated (ECHCG); format: in vivo, Echinochloa crus-galli; conditions: adjuvant g ai/ha: none (CE1-A)
Experimental: (§1) A greenhouse study was conducted to evaluate the effect of the alkylether sulfates of formula (I) and other adjuvants on the weed control efficacy of glufosinate. Seedlings of grass plants (AVEFA, ECHCG, DIGSA and SETVI) and broadleaf weeds (KCHSC, CHEAL, AMAPA, AMATA and ABUTH) were grown to a height of 3 to 20 cm, depending on the plant habit in 10×10×10 cm pots filled with sandy planting soil (Limburgerhof soil). The weeds were treated with postemergence applications of glufosinate ammonium at the respective application rates given in the following tables, either alone or combined with various amounts of the respective adjuvants.
(§2) For this, the herbicide formulation and the respective adjuvant were introduced into tap water to obtain the spray liquor. […] The spray liquor was then applied to the plant a spray volume of 200 l/ha using a sprayer (XR Teejet 110015).
(§3) The test period extended over 21 days. During this time, the plants were tended, and their response to the treatments with active compound was evaluated.
(§4) The evaluation for the damage caused by the chemical compositions was carried out using a scale from 0 to 100%, compared to the untreated control plants. Here, 0 means no damage and 100 means complete destruction of the plants.
(§5) The plants used in the greenhouse experiments belonged to the following species:
(§6) The results are summarized in the following tables 1 to 15 that show the applied doses of the individual actives as gram of active ingredient per hectare (g ai/ha), the herbicidal activity of the individual […]

DIGSA (large crabgrass) = assay: Greenhouse post-emergence weed control, damage vs untreated (DIGSA); format: in vivo, Digitaria sanguinalis; conditions: 20 DAT, adjuvant g ai/ha: none (CE1-A)
Experimental: as §1, §2, §3, §4
(§7) The plants used in the greenhouse experiments belonged to the following species: […]

[1] = test system: AMATA (common water hemp); assay: Greenhouse post-emergence weed control, damage vs untreated (AMATA); format: in vivo, Amaranthus tuberculatus; conditions: 20 DAT, adjuvant g ai/ha: none (CE1-A)
Experimental: as §1, §2, §3, §4, §5
(§8) The results are summarized in the following tables 1 to 15 that show the applied doses of the individual actives as gram of active ingredient per hectare (g ai/ha), the herbicidal activity of the individual actives and of their combinations in post-emergence application assessed 14 and 28 day after treatment (DAT), respectively.

CHEAL (lambsquarter) = assay: Greenhouse post-emergence weed control, damage vs untreated (CHEAL); format: in vivo, Chenopodium album; conditions: adjuvant g ai/ha: none (CE1-A)
Experimental: as §1, §2, §3, §4, §5, §6

AVEFA (wild oat) = assay: Greenhouse post-emergence weed control, damage vs untreated (AVEFA); format: in vivo, Avena fatua; conditions: adjuvant g ai/ha: none (CE1-A)
Experimental: as §1, §2, §3, §4, §5, §6

ABUTH (velvetleaf) = assay: Greenhouse post-emergence weed control, damage vs untreated (ABUTH); format: in vivo, Abutilon theophrasti; conditions: 20 DAT, adjuvant g ai/ha: none (CE1-A)
Experimental: as §1, §2
[…] During this time, the plants were tended, and their response to the treatments with active compound was evaluated.
as §4, §7

[2] = test system: ØBLV (average value of KCHSC, CHEAL, AMAPA, AMATA and ABUTH); assay: Greenhouse post-emergence weed control, average over broadleaf weeds (ØBLV); format: in vivo; conditions: 20 DAT, adjuvant g ai/ha: none (CE1-A)
Experimental: as §1, §2, §3, §4, §5, §8

SETVI (green foxtail) = assay: Greenhouse post-emergence weed control, damage vs untreated (SETVI); format: in vivo, Setaria viridis; conditions: adjuvant g ai/ha: none (CE1-A)
Experimental: as §1, §2, §3, §4, §5, §6

KCHSC (kochia) = assay: Greenhouse post-emergence weed control, damage vs untreated (KCHSC); format: in vivo, Kochia scoparia; conditions: 20 DAT, adjuvant g ai/ha: none (CE1-A)
Experimental: as §1, §2, §3, §4, §7

AMAPA (palmer amaranth) = assay: Greenhouse post-emergence weed control, damage vs untreated (AMAPA); format: in vivo, Amaranthus palmeri; conditions: 20 DAT, adjuvant g ai/ha: none (CE1-A)
Experimental: as §1, §2, §3, §4, §5, §8

[3] = test system: Øgras (average value of AVEFA, ECHCG, DIGSA and SETVI); assay: Greenhouse post-emergence weed control, average over grasses (Øgras); format: in vivo; conditions: adjuvant g ai/ha: none (CE1-A)
Experimental: as §1, §2, §3, §4, §5, §6

[4] = 75 g ai/ha glufosinate rac., 56 (IE1-A), 62.125 (IE1-B), 51.625 (CE2-A, CE2-B), 55.75 (CE2-C), 66.75 (CE2-D), 103.25 (CE2-E)
[5] = 150 g ai/ha glufosinate rac., 112 (IE1-A), 124.25 (IE1-B), 103.25 (CE2-A, CE2-B), 111.5 (CE2-C), 133.5 (CE2-D), 206.5 (CE2-E)
[6] = 300 g ai/ha glufosinate rac., 223 (IE1-A, CE2-C), 248.5 (IE1-B), 206.5 (CE2-A, CE2-B), 267 (CE2-D), 413 (CE2-E)
[7] = 600 g ai/ha glufosinate rac., 446 (IE1-A, CE2-C), 497 (IE1-B), 413 (CE2-A, CE2-B), 534 (CE2-D), 826 (CE2-E)

For CP(=O)(O)CCC(N)C(=O)O.N (racemic) [CE1-A, ammonium (2RS)-2-amino-4-(methylphosphinato)butyric acid], the “% activity” value (HORVW (winter barley); [4]) was 0%, the “% activity” value (HORVW (winter barley); [5]) was 0% and the “% activity” value (HORVW (winter barley); [6]) was 0%. For the same compound, the “% activity” value (ECHCG (barnyardgrass); [4]) was 0%, the “% activity” value (ECHCG (barnyardgrass); [5]) was 0% and the “% activity” value (ECHCG (barnyardgrass); [6]) was 0%. The “% activity” value (ECHCG (barnyardgrass); [7]) was 0%, the “% activity” value (DIGSA (large crabgrass); [4]) was 0% and the “% activity” value (DIGSA (large crabgrass); [5]) was 0%. For the same compound, the “% activity” value (DIGSA (large crabgrass); [6]) was 50%, the “% activity” value (DIGSA (large crabgrass); [7]) was 80% and the “% activity” value [1, 4] was 20%. For the same compound, the “% activity” value [1, 5] was 98%, the “% activity” value [1, 6] was 85% and the “% activity” value [1, 7] was 98%. The “% activity” value (CHEAL (lambsquarter); [4]) was 0%, the “% activity” value (CHEAL (lambsquarter); [5]) was 0% and the “% activity” value (CHEAL (lambsquarter); [6]) was 10%. The “% activity” value (CHEAL (lambsquarter); [7]) was 10%, the “% activity” value (AVEFA (wild oat); [4]) was 5% and the “% activity” value (AVEFA (wild oat); [5]) was 0%. For the same compound, the “% activity” value (AVEFA (wild oat); [6]) was 10%, the “% activity” value (AVEFA (wild oat); [7]) was 25% and the “% activity” value (ABUTH (velvetleaf); [4]) was 5%. The “% activity” value (ABUTH (velvetleaf); [5]) was 20%, the “% activity” value (ABUTH (velvetleaf); [6]) was 75% and the “% activity” value (ABUTH (velvetleaf); [7]) was 60%. The “% activity (ØBLV)” value [2, 4] was 15%, the “% activity (ØBLV)” value [2, 5] was 43% and the “% activity (ØBLV)” value [2, 6] was 55%. The “% activity (ØBLV)” value [2, 7] was 57%, the “% activity” value (SETVI (green foxtail); [4]) was 80% and the “% activity” value (SETVI (green foxtail); [5]) was 95%. The “% activity” value (SETVI (green foxtail); [6]) was 98%, the “% activity” value (SETVI (green foxtail); [7]) was 98% and the “% activity” value (KCHSC (kochia); [4]) was 0%. The “% activity” value (KCHSC (kochia); [5]) was 0%, the “% activity” value (KCHSC (kochia); [6]) was 5% and the “% activity” value (KCHSC (kochia); [7]) was 20%. The “% activity” value (AMAPA (palmer amaranth); [4]) was 50%, the “% activity” value (AMAPA (palmer amaranth); [5]) was 98% and the “% activity” value (AMAPA (palmer amaranth); [6]) was 98%. For the same compound, the “% activity” value (AMAPA (palmer amaranth); [7]) was 98%, the “% activity (Øgras)” value [3, 4] was 21% and the “% activity (Øgras)” value [3, 5] was 24%. For the same compound, the “% activity (Øgras)” value [3, 6] was 40% and the “% activity (Øgras)” value [3, 7] was 51%.
